Measurements reported in US20030212061A1, “Aza-thioxanthenones with antitumor activity” (priority 2002, published 2003).
Like-named read-outs stand apart in the source and are kept apart here.

Columns and labels:
[1] = system: HeLa S-3 cells; experiment: Inhibition of cell growth (GI50), sulforhodamine B staining; format: cell-based; details: for Folds Improvements: GI50 of carbocyclic congener versus GI50 of aza-analog
Description: Growth inhibition (GI50) values were measured with HeLa S-3 cells selected for growth on plastic. The procedure was based on the protocol of Skehan et al. (Skehan, P., et al., J. Natl. Cancer Inst., 82:1107-1112 (1990), which is hereby incorporated by reference) HeLa cells were plated at 2×10^4 cells/well in 96 well plates. One day later, a control plate was fixed by addition of TCA to 5%. After five rinses with tap water, the plate was air dried and stored at 4° C. Test compounds were added to the remaining plates at 10-fold dilutions between 0.01 and 100 μM. Two days later, all plates were fixed as described above. Cells were then stained by the addition of 100 μl per well of 0.4% sulforhodamine B (SRB) in 1% acetic acid for 30 min at 4° C. Wells were then quickly rinsed 5×with acetic acid (1%) and allowed to air dry. The SRB was then solubilized by the addition of 100 μl per well of unbuffered 10 mM Tris base. Dye was quantified by measuring absorbance at 490 nm on a Molecular Devices kinetic microplate reader. Growth at each inhibitor concentration relative to the untreated control was calculated according to the following equation: percent growth=100×(T−To)/(C−To), where T was the average optical density (OD) of the test wells after 2 days of treatment, To was the average OD of the wells in the control plate on day 0 and C was the average OD of untreated wells. Plots of percent growth versus inhibitor concentration were used to determine the GI50.
The data below shown in Table 4 summarizes the in vitro growth inhibition constants (GI50) of HeLa Cells for the compounds of the current invention.
GI50 is the concentration of the compound that causes a 50 percent inhibition of tumor cell growth

[2] = system: murine leukemia (L1210) and P388 leukemia cells; details: in vitro L1210 and in vivo P388; cited from earlier work
[3] = Homo sapiens, HeLa S3, 48 h, HeLa cells, 2 days of treatment, Table 4, read-out: GI50 Activity
[4] = Homo sapiens, HeLa S3, HeLa cells, Table 5, aza-analog, read-out: GI50 (Aza-Analog)
[5] = Homo sapiens, HeLa S3, HeLa cells, Table 5, carbocyclic congener, read-out: GI50 (Carbocic Congener)

| Structure (SMILES) | GI50 [1, 3] [nM] | further results |
| --- | --- | --- |
| CN(C)CCNC(=O)c1cccc2c(=O)c3ccccc3sc12.Cl [N-[2-(dimethylamino)ethyl-]-9-oxo-9H-thioxanthene-4-carboxamide monohydrochloride] |  | assessment as a potential antitumor agent [2]: unlikely to worth pursuing |
| CCN(CC)CCNc1cccc2sc3ccccc3c(=O)c12 [drawing 74] | > 10000 |  |
| CCN(CC)CCNc1ccc(CNC=O)c2sc3ccncc3c(=O)c12 [drawing 82] | 1000 |  |
| CCN(CC)CCNc1ccc(CNC=O)c2sc3ccccc3c(=O)c12 [drawing 76] | 3000 |  |
| CCN(CC)CCNc1ccc(CNS(C)(=O)=O)c2sc3ccncc3c(=O)c12 [drawing 104] |  | Folds Improvements ([1]; HeLa cells): 7.5; GI50 [1, 4]: 400 nM |
| CCN(CC)CCNc1ccc(CNC(=O)OC)c2sc3ccccc3c(=O)c12 [drawing 105, reference compound] |  | GI50 [1, 5]: 3000 nM |
| CCN(CC)CCNc1ccc(CNC(=O)OC)c2sc3ccncc3c(=O)c12 | 300 |  |
| CCN(CC)CCNc1ccc(CN)c2sc3ccncc3c(=O)c12 [drawing 102] |  | Folds Improvements ([1]; HeLa cells): 1; GI50 [1, 4]: 700 nM |
| CCN(CC)CCNc1ccc(CNC(=O)OC)c2sc3ccccc3c(=O)c12 [drawing 79] | 3000 |  |
| CCN(CC)CCN(C)c1ccc2c(=O)c3cnccc3sc2c1 | > 10000 |  |
| CCN(CC)CCN(N)c1ccc2c(=O)c3cnccc3sc2c1 | > 10000 |  |
| CCN(CC)CCNc1ccc(C=O)c2sc3ccccc3c(=O)c12 | 2000 |  |
| CCN(CC)CCn1nc2c3c(c(CNC(=O)OC)ccc31)Sc1ccccc1-2 | 3000 |  |
| CCN(CC)CCn1nc2c3c(cccc31)Sc1ccncc1-2 | 1000 |  |
| CCN(CC)CCNc1ccc(CNS(C)(=O)=O)c2sc3ccncc3c(=O)c12 [drawing 84] | 400 |  |
| CCN(CC)CCn1nc2c3c(c(CNC=O)ccc31)Sc1ccccc1-2 | 1000 |  |
| CCN(CC)CCNc1cccc2sc3ccccc3c(=O)c12 [drawing 97, reference compound] |  | GI50 [1, 5]: > 10000 nM |
| CCN(CC)CCn1nc2c3c(c(CNC=O)ccc31)Sc1ccncc1-2 | 200 |  |
| CCN(CC)CCNc1ccc(CN)c2sc3ccccc3c(=O)c12 [drawing 101, reference compound] |  | GI50 [1, 5]: 600 nM |
| CCN(CC)CCNc1cccc2sc3ccncc3c(=O)c12 [drawing 98] |  | Folds Improvements ([1]; HeLa cells): 3.5; GI50 [1, 4]: 3000 nM |
| CCN(CC)CCNc1ccc(CNS(C)(=O)=O)c2sc3ccccc3c(=O)c12 [drawing 103, reference compound] |  | GI50 [1, 5]: 3000 nM |
| CCN(CC)CCNc1ccc(CNC=O)c2sc3ccccc3c(=O)c12 [drawing 99, reference compound] |  | GI50 [1, 5]: 3000 nM |
| CCN(CC)CCNc1ccc(CNC=O)c2sc3ccncc3c(=O)c12 [drawing 100] |  | Folds Improvements ([1]; HeLa cells): 3; GI50 [1, 4]: 1000 nM |
| CCN(CC)CCn1nc2c3c(c(CNC(=O)OC)ccc31)Sc1ccncc1-2 | 100 |  |
| CCN(CC)CCNc1ccc(CNS(C)(=O)=O)c2sc3ccncc3c(=O)c12 [drawing 106] |  | Folds Improvements ([1]; HeLa cells): 10; GI50 ([1]; HeLa cells, Table 5, aza-analog, read-out: GI50 (Aza-Analog)): 300 nM |
| CCN(CC)CCn1nc2c3c(c(CN)ccc31)Sc1ccncc1-2 | 200 |  |

Now from value to compound, other results behind:

| GI50 [1, 3] [nM] | Structure (SMILES) | further results |
| --- | --- | --- |
| 1000 | CCN(CC)CCn1nc2c3c(c(CN)ccc31)Sc1ccccc1-2 |  |
| 3000 | CCN(CC)CCNc1cccc2sc3ccncc3c(=O)c12 [drawing 81] |  |
| 9000 | CCN(CC)CCn1nc2c3c(cccc31)Sc1ccccc1-2 |  |
| 3000 | CCN(CC)CCNc1ccc(CNS(C)(=O)=O)c2sc3ccccc3c(=O)c12 [drawing 78] |  |
| 2000 | CCN(CC)CCn1nc2c3c(c(C=O)ccc31)Sc1ccccc1-2 |  |
| 700 | CCN(CC)CCNc1ccc(CN)c2sc3ccncc3c(=O)c12 [drawing 83] |  |
| 900 | CCN(CC)CCn1nc2c3c(c(CNS(C)(=O)=O)ccc31)Sc1ccccc1-2 |  |
| 600 | CCN(CC)CCNc1ccc(CN)c2sc3ccccc3c(=O)c12 [drawing 77] |  |
